Assay results taken from publication PMC7724630, “Improving the Stability of EGFR Inhibitor Cobalt(III) Prodrugs” (Inorganic Chemistry, 2020).
Several values for one entry are separate records, joined by “and”; a condition that tells them apart may be missing. Equal entries are not always repeated. Where two headings read alike, the source gives them in different places. Marks after values point to notes of the source that are not given here. One block for each molecule: values may come before it.

Assays:
A431 cancer cells [1] = test: MTT-based cytotoxicity assay under different O2 levels; format: cell-based, Human; conditions: A431, 72 h
EGFR (ErbB1) = EGFR (ErbB1) (Homo sapiens, UniProt P00533); test: Cell-free kinase inhibition assay (ZLYTE, Select Screen); format: biochemical; conditions: 10 μM ATP (10-fold excess of ATP), 1% DMSO
[2] = test system: EGFR phosphorylation at position Y1068 and ERK 1/2 in A431 cells; test: Western blot of EGFR signaling (pEGFR Y1068, pERK 1/2) after EGF stimulation; format: cell-based, Human; conditions: A431 serum-starved, 2 h drug, EGF 50 ng/mL 10 min, normoxic
[3] = Cyclic voltammetry, cathodic peak potential Co(III)/Co(II); format: physicochemical; conditions: 10 mM phosphate buffer pH 7.40, 0.1 M KCl, scan rate 30 mV/s, 1.5 mM complex
Procedure: As the reduction process is crucial for the activation of cobalt(III)-based prodrug systems, the redox properties of the complexes were investigated to elucidate the effects of ligand methylation at different positions. Cyclic voltammetry measurements were performed in aqueous solution at pH 7.40 (10 mM phosphate buffer with 0.1 M KCl). […] Also, at a much higher scan speed of 1000 mV/s, the redox processes were still completely irreversible (Figure S5).
The compounds were dissolved in 10 mM phosphate buffer (pH 7.40), with 0.1 M KCl as the supporting electrolyte, to obtain a final concentration of 1.5 mM. Electrochemical experiments were conducted on an EG&G PARC 273A potentiostat/galvanostat with scan rates of 30 and 1000 mV/s at room temperature. Argon was bubbled through the solution before every measurement to remove oxygen. A three-electrode configuration cell was used with a glassy carbon electrode as the working electrode, which was polished before every measurement. The reference electrode was Ag/AgCl/KCl (3.5 M), and the auxiliary electrode was a platinum wire. Electrodes were conditioned regularly in 1 M H2SO4 for 5–10 cycles between voltage limits of −1.0 and 1.0 V at a scan rate of 100 mV/s. The system was calibrated with 1.5 mM K3[Fe(CN)6] for every experiment. Redox potentials measured relative to the Ag/AgCl/KCl (3.5 M) reference electrode were converted for potentials against NHE by the addition of 0.205 V. Measurements were repeated at least three times, and the mean values were calculated.

A431 cancer cells [4] = conditions: cited from earlier work
[5] = cited from earlier work
[6] = Overall stability constants of binary and ternary cobalt(II) complexes by pH-potentiometry; format: physicochemical; conditions: for fraction of ligand coordinated to cobalt(II): 1:2:1 cobalt(II)-acac-ligand system, computed from stability constants; for log β [Co(II)A2B]0 ternary complex / log β [Co(II)AB2]+ ternary complex / log β [Co(II)AB]+ ternary complex: A = acac, B = MeEn or PhEn
Procedure: Following the determination of the stability constants for the binary complexes (Table 2), overall stability constants for the mixed-ligand complexes formed in the cobalt(II)–acac–MeEn and cobalt(II)–acac–PhEn ternary systems were calculated on the basis of pH-potentiometric titrations. Three types of complexes were formed, [CoAB]^+, [CoA2B], and [CoAB2]^+, where “A” denotes acac and “B” refers to MeEn or PhEn. Concentration distribution curves in Figure 5 were computed using the stability constants of the 1:2:1 cobalt(II)–acac–PhEn composition that corresponds to the reduced form of Co(II)(acac)2L^0. […] For the 1:2:1 cobalt(II)–acac–MeEn system, ∼11% are still coordinated to cobalt(II) at pH 7.4 (Figure S6). However, it has to be mentioned that these calculations were performed for 1 mM cobalt(II) (where the titrations were performed), and the amount of the intact ternary complex further decreases with lower concentrations [e.g., in the latter system at pH 7.4 and 0.1 mM cobalt(II), the coordinated MeEn fraction is only ∼2%].
(§1) For determination of the proton dissociation (Ka) and formation constants (β) pH-potentiometric measurements were carried out at 25 ± 0.1 °C and an ionic strength (I) of 0.10 M (KCl) to keep the activity coefficients constant. A carbonate-free KOH solution (0.10 M) was used for titrations. The exact concentrations of HCl and KOH were determined by pH-potentiometric titrations. A Metrohm-combined electrode (type 6.0234.100) connected to an Orion 710A pH-meter and a computer-controlled Methrom 665 Dosimat buret (increment, 1 μL; precision, 2 μL) were used for the pH-potentiometric measurements. […] The determined average water ionization constant (pKw = 13.76 ± 0.01) corresponds well to the literature data.[37] Titration points included in the calculations gave a reproducibility within 0.005 pH unit. Titrations were performed in the pH range of 2.0–11.5, and the initial volume of the samples was 10 mL. Binary systems contained 1 or 2 mM ligand, and metal:ligand ratios of 1:1, 1:2, 1:3, and 1:4 were used. In the ternary systems, the cobalt(II) concentration was 1 mM and the two types of ligands (A, acac, and B, MeEn, or PhEn) were varied as follows: 1:1:1, 1:2:1, 1:1:2, and 1:2:2 Co(II):A:B. The samples were degassed by bubbling purified argon through them for 10 min prior to the measurements, and argon was also passed over the solutions during the titrations.
The stoichiometry of the complexes and overall stability constants were established by the computer program Hyperquad2013.[53] For the general equilibrium β(MpLqHr) is defined as [drawing 2] 1 where M denotes the cobalt(II) ion and L the completely deprotonated ligand. The calculations were performed as reported in our previous work.[54]

[7] = Proton dissociation constants by pH-potentiometric titration; format: physicochemical; conditions: pH-potentiometry, 25.0 °C, I = 0.1 M (KCl)
From the text: After reductive activation of the cobalt(III) prodrugs, it is essential to investigate whether the formed cobalt(II) complexes indeed can release the coordinated targeting ligand. For this reason, we selected two ternary systems as models to study the potential liberation of the (N,N) ligand from the mixed-ligand cobalt complex upon reduction. Thus, the aqueous stability of several cobalt(II) complexes was investigated under strictly anaerobic conditions. Due to the limited water solubility of cobalt(II) chloride complexes with L, model ligands with better solubility, namely, MeEn and PhEn, were used. First, deprotonation processes of the acetlyacetone (Hacac) and the fully protonated MeEn and PhEn ligands were followed at pH 2.0–11.5 (Table 2).
as §1

[8] = I = 0.1 M NaClO4; cited from earlier work
[9] = Homo sapiens, A-431, 1% O2, read-out: IC50 hypoxia with 1% O2
[10] = Homo sapiens, A-431, 21% O2, read-out: IC50 normoxia
[11] = pH 7.0, NAD+/NADH or GSSG/GSH couple
[12] = 25.0 °C, I = 0.1 M (KCl), anaerobic

EGFR (ErbB1), sequence (P00533 25-1210): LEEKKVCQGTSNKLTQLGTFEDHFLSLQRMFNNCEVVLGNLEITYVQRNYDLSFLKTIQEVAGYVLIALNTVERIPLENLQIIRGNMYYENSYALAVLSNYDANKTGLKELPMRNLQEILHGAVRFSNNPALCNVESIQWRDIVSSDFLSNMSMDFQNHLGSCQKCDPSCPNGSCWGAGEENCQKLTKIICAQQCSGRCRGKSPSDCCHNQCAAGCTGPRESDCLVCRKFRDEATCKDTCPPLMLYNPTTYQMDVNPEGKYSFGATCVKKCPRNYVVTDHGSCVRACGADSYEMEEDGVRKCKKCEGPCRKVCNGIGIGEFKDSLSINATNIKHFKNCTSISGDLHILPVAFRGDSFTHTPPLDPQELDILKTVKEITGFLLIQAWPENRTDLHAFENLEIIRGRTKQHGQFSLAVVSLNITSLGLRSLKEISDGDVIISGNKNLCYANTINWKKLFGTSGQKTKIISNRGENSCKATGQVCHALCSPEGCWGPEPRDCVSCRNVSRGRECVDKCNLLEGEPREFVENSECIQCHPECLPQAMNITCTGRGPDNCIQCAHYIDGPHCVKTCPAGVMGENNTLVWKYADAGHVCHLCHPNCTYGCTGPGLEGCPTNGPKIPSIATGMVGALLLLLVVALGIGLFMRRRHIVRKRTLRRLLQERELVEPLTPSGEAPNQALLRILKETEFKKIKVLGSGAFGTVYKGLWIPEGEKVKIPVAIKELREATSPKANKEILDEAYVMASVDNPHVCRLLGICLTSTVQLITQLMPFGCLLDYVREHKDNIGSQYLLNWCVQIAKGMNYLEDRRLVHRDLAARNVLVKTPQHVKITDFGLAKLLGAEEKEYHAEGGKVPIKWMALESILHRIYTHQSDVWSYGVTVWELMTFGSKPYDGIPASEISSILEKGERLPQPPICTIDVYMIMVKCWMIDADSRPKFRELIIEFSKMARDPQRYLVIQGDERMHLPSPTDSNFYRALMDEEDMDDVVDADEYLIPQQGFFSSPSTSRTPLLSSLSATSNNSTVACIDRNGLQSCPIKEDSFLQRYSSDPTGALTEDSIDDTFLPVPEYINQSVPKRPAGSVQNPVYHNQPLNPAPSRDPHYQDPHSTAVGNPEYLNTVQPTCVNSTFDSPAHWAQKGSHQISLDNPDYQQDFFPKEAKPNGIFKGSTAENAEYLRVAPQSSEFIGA

- IC50 (EGFR (ErbB1)): 0.00041 µM
Molecule: CNCCNc1ccc2ncnc(Nc3cccc(Br)c3)c2c1.Cl.Cl [MeL, N^4-(3-Bromophenyl)-N^6-[2-(methylamino)ethyl]quinazoline-4,6-diamine Dihydrochloride]
- anticancer activity relative to L (A431 cancer cells [1]): approximately twice as effective as L
- IC50 (A431 cancer cells [1]; Homo sapiens, A-431, 0.1% O2, read-out: IC50 hypoxia with 0.1% O2): 5.4 ± 0.8 µM
- IC50 (A431 cancer cells [1]; [9]): 5.5 ± 0.4 µM
- IC50 (A431 cancer cells [1]; Homo sapiens, A-431, 5% O2, read-out: IC50 hypoxia with 5% O2): 8.7 ± 1.2 µM
- IC50 (A431 cancer cells [1]; [10]): 6.9 ± 1.8 µM
- EGFR-inhibitory potential (pEGFR, pERK 1/2) [2]: potent EGFR inhibition

- cathodic peak potential (Ec) vs NHE [3]: -152 mV
Molecule: Bis(2,4-pentanedionato) (Methyl-1,2-ethanediamine) Cobalt(III) Hexafluorophosphate [Co(acac)2MeEn^+]

Molecule: CC(=O)C=C(C)[O-].CC(=O)C=C(C)[O-].NCCN.[Co+2] [[Co(II)(acac)2en]]
- cytotoxic activity (A431 cancer cells [4]; A431 cells, both normoxia and hypoxia): No significant cytotoxic activity

Molecule: NC(=O)C1=CN([C@@H]2O[C@H](COP(=O)(O)OP(=O)(O)OC[C@H]3O[C@@H](n4cnc5c(N)ncnc54)[C@H](O)[C@@H]3O)[C@@H](O)[C@H]2O)C=CC1 [NADH, reduced nicotinamide adenine dinucleotide]
- formal potential [5, 11]: −0.32 V

Molecule: CC(=O)CC(C)=O [acac, acetylacetone]
- log β [Co(II)L2] binary complex [6, 12]: 8.66 ± 0.05 ^b
- log β [Co(II)L] binary complex [6, 12]: 5.05 ± 0.02 ^b
- pKa1 [7]: 8.80 ± 0.01 ^b
- pKa [8]: 8.82

- cathodic peak potential (Ec) vs NHE [3]: -200 mV
Molecule: Bis(3-methyl-2,4-pentanedionato) (Methyl-1,2-ethanediamine) Cobalt(III) Hexafluorophosphate [Co(Meacac)2MeEn^+]

Molecule: C#Cc1cccc(Nc2ncnc3cc(OCCOC)c(OCCOC)cc23)c1 [erlotinib, reference compound]
- IC50 (A431 cancer cells [1]; [9]): 14.4 ± 4 µM
- IC50 (A431 cancer cells [1]; [10]): 13.3 ± 4.7 µM

Molecule: O=C1O[C@H]([C@@H](O)CO)C(O)=C1O [AA, ascorbic acid]
- formal potential, higher values suggested by recent literature [5]: 0.35–0.50 V
- formal potential ([5]; dehydro-L-ascorbate/AA at pH 7.0): 0.06 V

- fraction of ligand coordinated to cobalt(II) ([6]; pH 7.4, 1 mM cobalt(II)): < 1%
- log β [Co(II)L2] binary complex [6, 12]: 6.75 ± 0.09
- log β [Co(II)L] binary complex [6, 12]: 3.63 ± 0.05
- log β [Co(II)A2B]0 ternary complex ([6]; 25.0 °C, I = 0.1 M (KCl)): 12.08 ± 0.09
- log β [Co(II)AB2]+ ternary complex ([6]; 25.0 °C, I = 0.1 M (KCl)): 11.29 ± 0.13
- log β [Co(II)AB]+ ternary complex ([6]; 25.0 °C, I = 0.1 M (KCl)): 8.03 ± 0.15
- pKa1 [7]: 1.85 ± 0.01 ^c
- pKa2 [7]: 9.34 ± 0.01 ^c
Molecule: NCCNc1ccccc1 [PhEn, N-phenylethylenediamine]

- fraction of ligand coordinated to cobalt(II) ([6]; pH 7.4, 0.1 mM cobalt(II)): ~2%
- fraction of ligand coordinated to cobalt(II) ([6]; pH 7.4, 1 mM cobalt(II)): ~11%
- log β [Co(II)L2] binary complex [6, 12]: 9.15 ± 0.02
- log β [Co(II)L3] binary complex [6, 12]: 12.94 ± 0.04
- log β [Co(II)L] binary complex [6, 12]: 5.26 ± 0.01
- log β [Co(II)A2B]0 ternary complex ([6]; 25.0 °C, I = 0.1 M (KCl)): 12.73 ± 0.09
- log β [Co(II)AB2]+ ternary complex ([6]; 25.0 °C, I = 0.1 M (KCl)): 13.20 ± 0.12
- log β [Co(II)AB]+ ternary complex ([6]; 25.0 °C, I = 0.1 M (KCl)): 9.82 ± 0.05
- pKa1 [7]: 7.04 ± 0.02
- pKa2 [7]: 9.98 ± 0.01
Molecule: CNCCN [MeEn, N-methylethylenediamine]

- cathodic peak potential (Ec) vs NHE [3]: 17 mV
Molecule: CC(=O)[C-](C)C(C)=O.CC(=O)[C-](C)C(C)=O.CNCCNc1ccc2ncnc(Nc3cccc(Br)c3)c2c1.[Cl-].[Co+3] [Co(Meacac)2MeL^+, Bis(3-methyl-2,4-pentanedionato) N^4-(3-Bromophenyl)-N^6-[2-(methylamino)ethyl]quinazoline-4,6-diamine Cobalt(III) Chloride]
- increase in cytotoxicity at 0.1% O2 compared to normoxic conditions (A431 cancer cells [1]): 2.9 fold
- IC50 (A431 cancer cells [1]; 0.1% O2, read-out: IC50 hypoxia with 0.1% O2): 19.9 ± 1 µM
- IC50 (A431 cancer cells [1]; 1% O2, read-out: IC50 hypoxia with 1% O2): ~32 µM and 32 µM
- IC50 (A431 cancer cells [1]; 5% O2, read-out: IC50 hypoxia with 5% O2): 55.2 ± 1.4 µM
- IC50 (A431 cancer cells [1]; 21% O2, read-out: IC50 normoxia): 58.6 ± 4.4 µM
- EGFR-inhibitory potential (pEGFR, pERK 1/2) [2]: distinctly weakened EGFR-inhibitory potential

Molecule: [Cl-].[Cl-].[Co+2] [CoCl2]
- cytotoxic activity (A431 cancer cells [4]): No significant cytotoxic activity

Molecule: N[C@@H](CCC(=O)N[C@@H](CS)C(=O)NCC(=O)O)C(=O)O [GSH, Glutathione]
- formal potential [5, 11]: −0.24 V
